Legend:
Type in all cases: in vivo
[1] = test system: Beet Armyworm (Spodoptera exigua); assay: Bioassay on Beet Armyworm (BAW), 128-well diet tray assay; conditions: Beet Armyworm, Table ABC, read-out: BAW rating
In short: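 Percent mortality, averaged over eight wells, was scored after five to seven days at 25° C under 14:10 light-dark. Each well's diet carried 50 μg/cm^2 of test molecule applied in acetone-water (90:10) and dried before one to five second-instar larvae were added.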

[2] = test system: Cabbage Looper (Trichoplusia ni); assay: Bioassay on Cabbage Looper (CL), 128-well diet tray assay; conditions: Cabbage Looper, Table ABC, read-out: CL rating
In short: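 Mortality after five to seven days at 25° C (14:10 photoperiod), averaged over eight wells per compound. Diet in each well carried 50 μg/cm^2 of dried test molecule and received one to five second-instar larvae.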

[3] = test system: Yellow Fever Mosquito (Aedes aegypti); assay: Bioassay on Yellow Fever Mosquito (YFM) larvae, 96-well plate; conditions: Table ABC
Description: Example C: Bioassays on Yellow Fever Mosquito (Aedes Aegypti, AEDSAE) (“YFM”)
Certain molecules disclosed in this document were tested against YFM using procedures described in the following paragraph. In the reporting of the results, the “GPA & YFM Rating Table” was used (See Table Section).
Master plates containing 400 μg of a molecule dissolved in 100 μL of dimethyl sulfoxide (DMSO) (equivalent to a 4000 ppm solution) are used. A master plate of assembled molecules contains 15 μL per well. To this plate, 135 μL of a 90:10 water:acetone mixture is added to each well. A robot (Biomek® NXP Laboratory Automation Workstation) is programmed to dispense 15 μL aspirations from the master plate into an empty 96-well shallow plate (“daughter” plate). There are 6 reps (“daughter” plates) created per master. The created daughter plates are then immediately infested with YFM larvae.
The day before plates are to be treated, mosquito eggs are placed in Millipore water containing liver powder to begin hatching (4 g. into 400 mL). After the daughter plates are created using the robot, they are infested with 220 μL of the liver powder/larval mosquito mixture (about 1 day-old larvae). After plates are infested with mosquito larvae, a non-evaporative lid is used to cover the plate to reduce drying. Plates are held at room temperature for 3 days prior to grading. After 3 days, each well is observed and scored based on mortality. The results are indicated in the table entitled “Table ABC: Biological Results” (See Table Section).

SMILES | pest or weed control at 50 µg/cm2 [1] | pest or weed control at 50 µg/cm2 [2] | YFM rating [3]
O=C(CNC(=O)c1ccc(/C(F)=C/C(c2cc(Br)c(Cl)c(Br)c2)C(F)(F)F)cc1C(F)(F)F)NCC(F)(F)F (stereo not drawn) [F46, (Z)-4-(3-(3,5-Dibromo-4-chlorophenyl)-1,4,4,4-tetrafluorobut-1-en-1-yl)-N-(2-oxo-2-((2,2,2-trifluoroethyl)amino)ethyl)-2-(trifluoromethyl)benzamide] | 50 to 100% | 50 to 100% | A (80-100)
C=Cc1c(Cl)cc(C(/C=C(\F)c2ccc(C(=O)N[C@H](C)C(=O)NCC(F)(F)F)c(C(F)(F)F)c2)C(F)(F)F)cc1Cl (stereo partly drawn) [F52, 4-((Z)-3-(3,5-Dichloro-4-vinylphenyl)-1,4,4,4-tetrafluorobut-1-en-1-yl)-N—((R)-1-oxo-1-((2,2,2-trifluoroethyl)amino)propan-2-yl)-2-(trifluoromethyl)benzamide] | 50 to 100% | 50 to 100% | A (80-100)
CCN1OC[C@@H](NC(=O)c2ccc(/C(F)=C/C(c3cc(Cl)c(Cl)c(Cl)c3)C(F)(F)F)cc2C(F)(F)F)C1=O (stereo partly drawn) [F53, N—((R)-2-Ethyl-3-oxoisoxazolidin-4-yl)-4-((Z)-1,4,4,4-tetrafluoro-3-(3,4,5-trichlorophenyl)but-1-en-1-yl)-2-(trifluoromethyl)benzamide] | 50 to 100% | 50 to 100% | A (80-100)
C[C@@H](NC(=O)c1ccc(/C(F)=C/C(c2cc(Cl)c(Br)c(Cl)c2)C(F)(F)F)cc1C(F)(F)F)C(=O)NCC(F)(F)F (stereo partly drawn) [F59, 4-((Z)-3-(4-Bromo-3,5-dichlorophenyl)-1,4,4,4-tetrafluorobut-1-en-1-yl)-N—((R)-1-oxo-1-((2,2,2-trifluoroethyl)amino)propan-2-yl)-2-(trifluoromethyl)benzamide] | 50 to 100% | 50 to 100% | A (80-100)
O=C(NC1(C(=O)NCC(F)(F)F)CC1)c1ccc(/C(F)=C/C(c2cc(Cl)c(Br)c(Cl)c2)C(F)(F)F)cc1C(F)(F)F (stereo not drawn) [F60, (Z)-4-(3-(4-Bromo-3,5-dichlorophenyl)-1,4,4,4-tetrafluorobut-1-en-1-yl)-N-(1-((2,2,2-trifluoroethyl)carbamoyl)cyclopropyl)-2-(trifluoromethyl)benzamide] | 50 to 100% | 50 to 100% | A (80-100)
C=Cc1c(Cl)cc(C(/C=C(\F)c2ccc(C(=O)NCC(=O)NCC(F)(F)F)c(C(F)(F)F)c2)C(F)(F)F)cc1Cl (stereo not drawn) [F61, (Z)-4-(3-(3,5-Dichloro-4-vinylphenyl)-1,4,4,4-tetrafluorobut-1-en-1-yl)-N-(2-oxo-2-((2,2,2-trifluoroethyl)amino)ethyl)-2-(trifluoromethyl)benzamide] | 50 to 100% | 50 to 100% | A (80-100)
CN(CC(=O)NCC(F)(F)F)C(=O)c1ccc(/C(F)=C/C(c2cc(Cl)c(Cl)c(Cl)c2)C(F)(F)F)cc1C(F)(F)F (stereo not drawn) [F68, (Z)—N-Methyl-N-(2-oxo-2-((2,2,2-trifluoroethyl)amino)ethyl)-4-(1,4,4,4-tetrafluoro-3-(3,4,5-trichlorophenyl)but-1-en-1-yl)-2-(trifluoromethyl)benzamide] | 50 to 100% | 50 to 100% | A (80-100)
Cc1cc(C(/C=C(\F)c2ccc(C(=O)N[C@H](C)C(=O)NCC(F)(F)F)c(C(F)(F)F)c2)C(F)(F)F)cc(C)c1Cl (stereo partly drawn) [F69, 4-((Z)-3-(4-Chloro-3,5-dimethylphenyl)-1,4,4,4-tetrafluorobut-1-en-1-yl)-N—((R)-1-oxo-1-((2,2,2-trifluoroethyl)amino)propan-2-yl)-2-(trifluoromethyl)benzamide] | 50 to 100% | 50 to 100% | A (80-100)
Cc1cc(C(/C=C(\F)c2ccc(C(=O)NC3(C(=O)NCC(F)(F)F)CC3)c(C(F)(F)F)c2)C(F)(F)F)cc(C)c1Cl (stereo not drawn) [F70, (Z)-4-(3-(4-Chloro-3,5-dimethylphenyl)-1,4,4,4-tetrafluorobut-1-en-1-yl)-N-(1-((2,2,2-trifluoroethyl)carbamoyl)cyclopropyl)-2-(trifluoromethyl)benzamide] | 50 to 100% | 50 to 100% | A (80-100)
Cc1cc(C(/C=C(\F)c2ccc(C(=O)NCC(=O)NCC(F)(F)F)c(C(F)(F)F)c2)C(F)(F)F)cc(C)c1Cl (stereo not drawn) [F71, (Z)-4-(3-(4-Chloro-3,5-dimethylphenyl)-1,4,4,4-tetrafluorobut-1-en-1-yl)-N-(2-oxo-2-((2,2,2-trifluoroethyl)amino)ethyl)-2-(trifluoromethyl)benzamide] | 50 to 100% | 50 to 100% | B (More than 0-Less than 80)
C[C@@H](NC(=O)c1ccc(/C(F)=C/C(c2cc(Cl)cc(Cl)c2)C(F)(F)F)cc1C(F)(F)F)C(=O)N(C)CC(F)(F)F (stereo partly drawn) [F72, 4-((Z)-3-(3,5-Dichlorophenyl)-1,4,4,4-tetrafluorobut-1-en-1-yl)-N—((R)-1-(methyl(2,2,2-trifluoroethyl)amino)-1-oxopropan-2-yl)-2-(trifluoromethyl)benzamide] | 50 to 100% | 50 to 100% | A (80-100)
C[C@@H](NC(=O)c1ccc(/C(F)=C/C(c2ccc(Cl)c(Cl)c2)C(F)(F)F)cc1C(F)(F)F)C(=O)N(C)CC(F)(F)F (stereo partly drawn) [F73, 4-((Z)-3-(3,4-Dichlorophenyl)-1,4,4,4-tetrafluorobut-1-en-1-yl)-N—((R)-1-(methyl(2,2,2-trifluoroethyl)amino)-1-oxopropan-2-yl)-2-(trifluoromethyl)benzamide] | 50 to 100% | 50 to 100% | A (80-100)
CN(CC(F)(F)F)C(=O)CNC(=O)c1ccc(/C(F)=C/C(c2ccc(Cl)c(Cl)c2)C(F)(F)F)cc1C(F)(F)F (stereo not drawn) [F74, (Z)-4-(3-(3,4-Dichlorophenyl)-1,4,4,4-tetrafluorobut-1-en-1-yl)-N-(2-(methyl(2,2,2-trifluoroethyl)amino)-2-oxoethyl)-2-(trifluoromethyl)benzamide] | 50 to 100% | 50 to 100% | A (80-100)
CN(CC(F)(F)F)C(=O)CNC(=O)c1ccc(/C(F)=C/C(c2cc(Cl)c(Br)c(Cl)c2)C(F)(F)F)cc1C(F)(F)F (stereo not drawn) [F75, (Z)-4-(3-(4-Bromo-3,5-dichlorophenyl)-1,4,4,4-tetrafluorobut-1-en-1-yl)-N-(2-(methyl(2,2,2-trifluoroethyl)amino)-2-oxoethyl)-2-(trifluoromethyl)benzamide] | 50 to 100% | 50 to 100% | A (80-100)
C[C@@H](NC(=O)c1ccc(/C(F)=C/C(c2cc(Cl)c(Br)c(Cl)c2)C(F)(F)F)cc1C(F)(F)F)C(=O)N(C)CC(F)(F)F (stereo partly drawn) [F76, 4-((Z)-3-(4-Bromo-3,5-dichlorophenyl)-1,4,4,4-tetrafluorobut-1-en-1-yl)-N—((R)-1-(methyl(2,2,2-trifluoroethyl)amino)-1-oxopropan-2-yl)-2-(trifluoromethyl)benzamide] | 50 to 100% | 50 to 100% | A (80-100)
CN(CC(F)(F)F)C(=O)CNC(=O)c1ccc(/C(F)=C/C(c2cc(Br)c(Cl)c(Br)c2)C(F)(F)F)cc1C(F)(F)F (stereo not drawn) [F77, (Z)-4-(3-(3,5-Dibromo-4-chlorophenyl)-1,4,4,4-tetrafluorobut-1-en-1-yl)-N-(2-(methyl(2,2,2-trifluoroethyl)amino)-2-oxoethyl)-2-(trifluoromethyl)benzamide] | 50 to 100% | 50 to 100% | A (80-100)
C[C@@H](NC(=O)c1ccc(/C(F)=C/C(c2cc(Br)c(Cl)c(Br)c2)C(F)(F)F)cc1C(F)(F)F)C(=O)N(C)CC(F)(F)F (stereo partly drawn) [F78, 4-((Z)-3-(3,5-Dibromo-4-chlorophenyl)-1,4,4,4-tetrafluorobut-1-en-1-yl)-N—((R)-1-(methyl(2,2,2-trifluoroethyl)amino)-1-oxopropan-2-yl)-2-(trifluoromethyl)benzamide] | 50 to 100% | 50 to 100% | A (80-100)
C[C@@H](NC(=O)c1ccc(/C(F)=C/C(c2ccc(Br)c(Br)c2)C(F)(F)F)cc1C(F)(F)F)C(=O)NCC(F)(F)F (stereo partly drawn) [F79, 4-((Z)-3-(3,4-Dibromophenyl)-1,4,4,4-tetrafluorobut-1-en-1-yl)-N—((R)-1-oxo-1-((2,2,2-trifluoroethyl)amino)propan-2-yl)-2-(trifluoromethyl)benzamide] | 50 to 100% | 50 to 100% | A (80-100)

— patent publication US10251394B2, “Molecules having pesticidal utility, and intermediates, compositions, and processes, related thereto” (Dow AgroSciences LLC, priority 2016, dated 2019)
